How the values were obtained:
[1] = target: T1, ROCKII (1-543) (Homo sapiens, UniProt O75116); assay: IMAP Assay (fluorescence polarization, FAM S6 peptide); assay type: biochemical; set-up: 3 nM ROCKII (1-543) diluted in kinase reaction buffer; details: IMAP FP, 1 nM ROCKII (1-543), 100 μM ATP; read-out: Assay 2 IC50
Procedure: This assay is performed using FAM S6 substrate peptide (Catalogue #R7184) and IMAP FP Screening Express Kit detection reagents from Molecular Devices (Sunnyvale, Calif.) in IMAP kinase reaction buffer (Tris-HCl, pH 7.2, 10 mM MgCl2, 0.05% NaN3, 0.1% phosphate-free BSA) containing 1 mM DTT. Test compounds dissolved in neat DMSO at 0.3 mg/mL are serially diluted 1 to 3 for concentration response in 100% DMSO. The DMSO serial dilutions are further diluted 33.33-fold in kinase reaction buffer, and 10 μL of this buffer dilution is transferred to Corning black 96-well half area NBS plates for a final top concentration of 3 μg/mL in 1% DMSO. 10 μL aliquot of 3 nM ROCKII (1-543) diluted in kinase reaction buffer is added to each assay well for a final concentration of 1 nM kinase. 10 μL of a mixture of 600 nM FAM S6 peptide and 300 μM ATP diluted in kinase reaction buffer is added to each well for a final concentration of 200 nM peptide and 100 μM ATP. The kinase reaction mixture is incubated for 60 minutes at room temperature. Positive controls are reaction mixtures containing no test compound and negative controls (blanks) are reaction mixtures containing no kinase. The kinase reaction is stopped by addition of 60 μL IMAP progressive binding reagent (Catalog #R7284) diluted 400-fold in 1× Binding buffer A. After 30 min of incubation at room temperature, the plates are read for fluorescence polarization on Analyst Plate Reader using Ex 485 nm, Em 530 nm, and FL 505 dichroic mirror. The mP signals are converted to percent of control (POC) values using the formula: POC=100*(Signal−BCTRL)÷(PCTRL−BCTRL)
Where Signal is the test well signal, BCTRL is the average of background (negative control) well signals on the plate and PCTRL is the average of positive control well signals on the plate. For the concentration-responsive compounds, POC as a function of test compound concentration is fitted to a 4-parameter logistic equation of the form: Y=A+(B−A)/[1+(x/C)D]
Where A, B, C, and D are fitted parameters (parameter B is fixed at zero POC), and x and y are the independent and dependent variables, respectively. The IC50 is determined as the inflection point parameter, C.
Target sequence in this assay (O75116 1-543, species assumed): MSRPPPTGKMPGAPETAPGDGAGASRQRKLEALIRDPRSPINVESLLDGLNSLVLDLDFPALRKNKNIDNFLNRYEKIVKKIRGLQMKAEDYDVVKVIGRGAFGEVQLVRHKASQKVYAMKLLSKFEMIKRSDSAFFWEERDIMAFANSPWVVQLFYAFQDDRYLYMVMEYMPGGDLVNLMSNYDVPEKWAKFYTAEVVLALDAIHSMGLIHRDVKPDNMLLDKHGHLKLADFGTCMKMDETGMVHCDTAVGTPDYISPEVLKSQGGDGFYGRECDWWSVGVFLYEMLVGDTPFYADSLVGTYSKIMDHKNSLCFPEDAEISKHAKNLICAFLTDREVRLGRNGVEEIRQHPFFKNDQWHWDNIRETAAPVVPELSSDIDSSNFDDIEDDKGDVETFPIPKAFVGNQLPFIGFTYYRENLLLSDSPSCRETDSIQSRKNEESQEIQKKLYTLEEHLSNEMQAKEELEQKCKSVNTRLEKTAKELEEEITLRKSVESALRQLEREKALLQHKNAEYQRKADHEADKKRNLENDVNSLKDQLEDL

[2] = target: T1, ROCKII (1-543); assay: Luciferin-Luciferase Assay (PKLight ATP detection); assay type: biochemical; set-up: ROCKII (1-543) (62,408 Da) was diluted in assay buffer; details: 7.5 nM ROCKII (1-543), 750 nM ATP
Procedure: 1. Luciferin-Luciferase Assay
The activity of ROCKII (1-543) kinase was measured utilizing Cambrex PKLight ATP Detection Reagent, a homogeneous assay technology using luciferin-luciferase to quantify residual ATP. The assay was performed in 384-well low-volume, white, non-binding surface microtiter plates (Corning). The assay buffer was 25 mM HEPES, pH 7.5, 10 mM MgCl2, 50 mM KCl, 0.2% BSA, 0.01% CHAPS, 100 μM Na3VO4 and 0.5 mM DTT. Test compounds, dissolved in neat DMSO at 500 μg/mL, were serially diluted for dose response for a final starting concentration of 3 μg/mL in 1% DMSO of assay buffer. ROCKII (1-543) (62,408 Da) was diluted in assay buffer to a final concentration of 7.5 nM in a total volume of 15 μL. Positive controls were reaction mixtures containing no test compound; negative controls (blanks) were reaction mixtures containing no kinase. After 15 minutes of pre-incubation of the test compounds with the kinase, a mixture of ATP and peptide substrate (AKRRRLSSLRA) in assay buffer was added to each well for a final concentration of 750 nM ATP and 500 nM peptide, respectively. After 90 minutes of incubation of the kinase reaction at 28° C. temperature, 10 μL of PKLight ATP Detection Reagent (warmed to room temperature previously) was added to each well. The assay plate was incubated at room temperature for additional 15 minutes and then read on an Analyst in luminescence mode. Dose-response experiments for each of the test compounds were conducted in quadruplet. IC50 values of test compounds represent 50% response of the positive control from the dose-response curve.
Target sequence in this assay (O75116 1-543): as the sequence (O75116 1-543, species assumed) above

SMILES	IC50 [1]	IC50 [2]
CN(C)[C@H]1CCc2nc(NC(=O)c3cccc(Cn4cc(-c5ccc(C#N)cc5)nn4)c3)sc2C1 [Compound 4, 3-[4-(4-Cyano-phenyl)-[1,2,3]triazol-1-ylmethyl]-N—((S)-6-dimethylamino-4,5,6,7-tetrahydro-benzothiazol-2-yl)-benzamide]	0.49 nM	–
N#Cc1ccc(-c2cnn(Cc3cccc(C(=O)Nc4nc5c(s4)C[C@@H](N4CCOCC4)CC5)c3)c2)cc1 [Compound 7, 3-[4-(4-Cyano-phenyl)-pyrazol-1-ylmethyl]-N—((S)-6-morpholin-4-yl-4,5,6,7-tetrahydro-benzothiazol-2-yl)-benzamide]	0.4 nM	–
N#Cc1ccc(-c2cn(Cc3cccc(C(=O)Nc4nc5c(s4)C[C@@H](N4CCOCC4)CC5)c3)nn2)cc1 [Compound 8, 3-[4-(4-Cyano-phenyl)-[1,2,3]triazol-1-ylmethyl]-N—((S)-6-morpholin-4-yl-4,5,6,7-tetrahydro-benzothiazol-2-yl)-benzamide]	1 nM	–
CN1CCN(C2CCc3nc(NC(=O)c4cccc(Cn5cc(-c6ccc(C#N)cc6)cn5)c4)sc3C2)CC1 (stereo not drawn) [Compound 11, 3-[4-(4-Cyano-phenyl)-pyrazol-1-ylmethyl]-N-[6-(4-methyl-piperazin-1-yl)-4,5,6,7-tetrahydro-benzothiazol-2-yl]-benzamide]	0.58 nM	–
N#CCCN[C@H]1CCc2nc(NC(=O)c3cccc(Cn4cc(-c5ccc(C#N)cc5)nn4)c3)sc2C1 [Compound 13, N—[(S)-6-(2-Cyano-ethylamino)-4,5,6,7-tetrahydro-benzothiazol-2-yl]-3-[4-(4-cyano-phenyl)-[1,2,3]triazol-1-ylmethyl]-benzamide]	1 nM	–
COCCN(C)C1CCc2nc(NC(=O)c3cccc(Cn4cc(-c5ccc(C#N)cc5)cn4)c3)sc2C1 (stereo not drawn) [Compound 14, 3-[4-(4-Cyano-phenyl)-pyrazol-1-ylmethyl]-N-{6-[(2-methoxy-ethyl)-methyl-amino]-4,5,6,7-tetrahydro-benzothiazol-2-yl}-benzamide]	0.41 nM	–
CN1CCN(C2CCc3nc(NC(=O)c4cccc(Cn5cc(-c6ccc(C#N)cc6)nn5)c4)sc3C2)CC1 (stereo not drawn) [Compound 23, 3-[4-(4-Cyano-phenyl)-[1,2,3]triazol-1-ylmethyl]-N-[6-(4-methyl-piperazin-1-yl)-4,5,6,7-tetrahydro-benzothiazol-2-yl]-benzamide]	1.3 nM	–
CN1CCN([C@H]2CCc3nc(NC(=O)c4cccc(Cn5cc(-c6ccc(C#N)cc6)cn5)c4)sc3C2)CC1 [Compound 25, 3-[4-(4-Cyano-phenyl)-pyrazol-1-ylmethyl]-N—[(S)-6-(4-methyl-piperazin-1-yl)-4,5,6,7-tetrahydro-benzothiazol-2-yl]-benzamide]	0.65 nM	–
N#Cc1ccc(-c2cn(Cc3cccc(C(=O)Nc4nc5c(s4)C[C@@H](N)CC5)c3)nn2)cc1 [Compound 29, N—((S)-6-Amino-4,5,6,7-tetrahydro-benzothiazol-2-yl)-3-[4-(4-cyano-henyl)-[1,2,3]triazol-1-ylmethyl]-benzamide]	0.73 nM	–
CN(CCC(F)(F)F)[C@H]1CCc2nc(NC(=O)c3cccc(Cn4cc(-c5ccc(C#N)cc5)nn4)c3)sc2C1 [Compound 31, 3-[4-(4-Cyano-phenyl)-[1,2,3]triazol-1-ylmethyl]-N-{(S)-6-[methyl-(3,3,3-trifluoro-propyl)-amino]-4,5,6,7-tetrahydro-benzothiazol-2-yl}-benzamide]	3.1 nM	–
N#Cc1cccc(-c2ccnc(Cc3cccc(C(=O)Nc4nc5c(s4)C[C@@H](N4CCOCC4)CC5)c3)n2)c1 [Compound 36, 3-[4-(3-Cyano-phenyl)-pyrimidin-2-ylmethyl]-N—((S)-6-morpholin-4-yl-4,5,6,7-tetrahydro-benzothiazol-2-yl)-benzamide]	–	9.9 nM
COCCN[C@H]1CCc2nc(NC(=O)c3cccc(Cn4cc(-c5ccc(C#N)cc5)nn4)c3)sc2C1 [Compound 48, 3-[4-(4-Cyano-phenyl)-[1,2,3]triazol-1-ylmethyl]-N—[(S)-6-(2-methoxy-ethylamino)-4,5,6,7-tetrahydro-benzothiazol-2-yl]-benzamide]	0.32 nM	–

The next lines start with the values.

IC50 [1]	IC50 [2]	SMILES
0.2 nM	–	CN(C)[C@H]1CCc2nc(NC(=O)c3cccc(Cn4cc(-c5ccc(C#N)cc5)cn4)c3)sc2C1 [Compound 5, 3-[4-(4-Cyano-phenyl)-pyrazol-1-ylmethyl]-N—((S)-6-dimethylamino-4,5,6,7-tetrahydro-benzothiazol-2-yl)-benzamide]
0.47 nM	–	N#Cc1ccc(-c2cnn(Cc3cccc(C(=O)Nc4nc5c(s4)C[C@@H](NCCC(F)(F)F)CC5)c3)c2)cc1 [Compound 20, 3-[4-(4-Cyano-phenyl)-pyrazol-1-ylmethyl]-N—[(S)-6-(3,3,3-trifluoro-propylamino)-4,5,6,7-tetrahydro-benzothiazol-2-yl]-benzamide]
0.35 nM	–	N#Cc1ccc(-c2cnn(Cc3cccc(C(=O)Nc4nc5c(s4)C[C@@H](N)CC5)c3)c2)cc1 [Compound 28, N—((S)-6-Amino-4,5,6,7-tetrahydro-benzothiazol-2-yl)-3-[4-(4-cyano-phenyl)-pyrazol-1-ylmethyl]-benzamide]
0.35 nM	–	N#CCCN[C@H]1CCc2nc(NC(=O)c3cccc(Cn4cc(-c5ccc(C#N)cc5)cn4)c3)sc2C1 [Compound 33, N—[(S)-6-(2-Cyano-ethylamino)-4,5,6,7-tetrahydro-benzothiazol-2-yl]-3-[4-(4-cyano-phenyl)-pyrazol-1-ylmethyl]-benzamide]
0.34 nM	–	COCCN(C)[C@H]1CCc2nc(NC(=O)c3cccc(Cn4cc(-c5ccc(C#N)cc5)cn4)c3)sc2C1 [Compound 46, 3-[4-(4-Cyano-phenyl)-pyrazol-1-ylmethyl]-N-{(S)-6-[(2-methoxy-ethyl)-methyl-amino]-4,5,6,7-tetrahydro-benzothiazol-2-yl}-benzamide]
–	1.8 nM	N#Cc1ccc(-c2cnn(Cc3cccc(C(=O)Nc4nc5c(s4)CC(NCC(F)F)CC5)c3)c2)cc1 (stereo not drawn) [Compound 51, 3-[4-(4-Cyano-phenyl)-pyrazol-1-ylmethyl]-N-[6-(2,2-difluoro-ethylamino)-4,5,6,7-tetrahydro-benzothiazol-2-yl]-benzamide]
–	9.4 nM	N#Cc1ccc(-c2cn(Cc3cccc(C(=O)Nc4nc5c(s4)CC(NCC(F)F)CC5)c3)nn2)cc1 (stereo not drawn) [Compound 52, 3-[4-(4-Cyano-phenyl)-[1,2,3]triazol-1-ylmethyl]-N-[6-(2,2-difluoro-ethylamino)-4,5,6,7-tetrahydro-benzothiazol-2-yl]-benzamide]
–	1.9 nM	CN(CCC#N)[C@H]1CCc2nc(NC(=O)c3cccc(Cn4cc(-c5ccc(C#N)cc5)cn4)c3)sc2C1 [Compound 53, N-{(S)-6-[(2-Cyano-ethyl)-methyl-amino]-4,5,6,7-tetrahydro-benzothiazol-2-yl}-3-[4-(4-cyano-phenyl)-pyrazol-1-ylmethyl]-benzamide]
–	1.9 nM	COCCN[C@@H]1CCc2nc(NC(=O)c3cccc(Cn4cc(-c5ccc(C#N)cc5)cn4)c3)sc2C1 [Compound 57, 3-[4-(4-Cyano-phenyl)-pyrazol-1-ylmethyl]-N—[(R)-6-(2-methoxy-ethylamino)-4,5,6,7-tetrahydro-benzothiazol-2-yl]-benzamide]

— patent publication US9000154B2, “Rho kinase inhibitors” (Boehringer Ingelheim International GmbH, priority 2010, dated 2015)
